# Results: publication PMC9078399, “Discovery of N-cyclobutylaminoethoxyisoxazole derivatives as novel sigma-1 receptor ligands with neurite outgrowth efficacy in cells” (RSC Advances, 2018)
# “Also recorded” adds a separate entry of the source.
# Columns and labels:
# σ1 receptor [1] = molecular target: σ1 receptor; design: method as in PMID 21278085, PMID 15170821, PMID 18647636, PMID 22935988, PMID 21967807; conditions: representative σ1 receptor ligands, Fig. 1; cited from earlier work
# σ1 receptor [2] = molecular target: T1, σ1 receptor (Cavia porcellus, UniProt Q60492); experiment: Radioligand binding at σ1 receptor ([3H]-(+)-pentazocine, NIMH PDSP); design: species or system Guinea pig; conditions: for Ki: [3H]-(+)-pentazocine, Guinea pig brain homogenate, mean ± SEM, three independent experiments; for Selectivity (Ki σ2/Ki σ1): ratio of Ki σ2 to Ki σ1
# T1 construct: σ1 receptor, [^3H]-(+)-pentazocine, Guinea pig brain homogenate; from tissue; host or cells: Guinea pig brain homogenate
# Excerpt: (§1) In this study, [^3H] pentazocine and [^3H]DTG (6) were used as the radioligands at σ1 and σ2 receptors. Firstly, we examined the effects of changing the substituents on the benzene ring. […] Mono-halogen substitution on the benzene ring exemplified by compounds 17–20 generally retained affinity for σ1 receptor compared with compound 7. […] The derivatives 21–25 also maintained similar high affinities for the σ1 receptor upon incorporation of two halogen atoms on the benzene ring. However, this is also accompanied with higher binding affinity to the σ2 receptor. […]. Next, we examined the effects of removing the methyl group on the basic nitrogen atom. […] […]. […] The results for the secondary amines 28 and 29 indicate that the hydrogen bond donor on basic nitrogen atom was beneficial for increased binding affinity to the σ1 receptor.
# (§2) Radioligand competition studies were carried out by the National Institute of Mental Health's Psychoactive Drug Screening Program, Contract #HHSN-271-2008-00025-C (NIMH PDSP). The general procedures are listed as follows:
# (§3) All the test compounds solution (1 mg mL^−1) were prepared by dissolving in DMSO or buffer solvent (50 mM Tris–HCl, pH = 8.0). The filter-mats were presoaked in 0.5% aqueous polyethyleneimine solution for 2 h at rt before use. All binding experiments were carried out in poly-L-lysine-coated 96-well plate and the final test concentration (50 μM, 5 μM, 1.5 μM, 500 nM, 150 nM, 50 nM, 15 nM, 5 nM, 1.5 nM, 0.5 nM, 0.05 nM) were prepared by addition of Tris–HCl solution (50 mM, pH = 8.0). The following specific radioligands and tissue source were used: (a) σ1 receptor, [^3H]-(+)-pentazocine, Guinea pig brain homogenate; (b) σ2 receptor, [^3H]-DTG, PC-12 cells. 100 μL of corresponding radioligand solution, 100 μL test compound solution and 50 μL of the respective receptor preparation into each well of the plate (total volume 250 μL). During the incubation, the plates were shaken at a speed of 500–600 rpm at the specified temperature (σ1 receptor, 37 °C, 150 min; σ2 receptor, rt, 120 min). The incubation was followed by a rapid vacuum filtration through Whatman GF/B glass filters, and the filtrates were washed twice with 10 mL of cold buffer and transferred to the 6 mL scintillation vials. EcoScint scintillation fluid (4.0 mL) was added, and the radioactivity bound was measured using a Beckman LS 6500 liquid scintillation counter. All experiments were performed at least three times.
# (§4) For experimental details please refer to the PDSP website http://pdsp.med.unc.edu/.[28]
# σ2 receptor [3] = molecular target: T2, σ2 receptor (Rattus norvegicus, UniProt Q5U3Y7); experiment: Radioligand binding at σ2 receptor ([3H]-DTG, NIMH PDSP); conditions: for Ki: [3H] DTG, PC12 cells, mean ± SEM, three independent experiments; for Increase of binding affinity for σ2 receptor relative to compound 7: compared with parent compound 7
# T2 construct: (b) σ2 receptor, [^3H]-DTG, PC-12 cells; endogenous in cells; host or cells: PC-12 cells
# T2 sequence (Q5U3Y7 1-176): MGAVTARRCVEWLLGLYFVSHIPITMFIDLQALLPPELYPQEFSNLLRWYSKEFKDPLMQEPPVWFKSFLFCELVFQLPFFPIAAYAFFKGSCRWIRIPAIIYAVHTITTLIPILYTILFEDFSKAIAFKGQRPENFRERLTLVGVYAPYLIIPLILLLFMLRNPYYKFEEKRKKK
# Excerpt: as §1, §2, §3, §4
# N1E-115 neuronal cells = experiment: Neurite outgrowth in N1E-115 cells; assay type: cell-based, mouse; conditions: 10 μM in DMSO, four days, vs. vehicle (DMSO)
# Method: Following the radioligand binding studies and CNS MPO calculations, all of the synthesized derivatives were further tested in cellular neuritogenesis studies. In this study, N1E-115 neuronal cells were used as a screening platform for assessing the neuritogenesis effects of candidate compounds.[31,32] All the derivatives and positive control (compound 7 and RC-33) were assessed at 10 μM concentration in DMSO, and vehicle group using DMSO alone.
# N1E-115 cells, the mouse neuroblastoma cell lines, were obtained from the American Type Culture Collection (ATCC, Manassas, VA, USA). Undifferentiated N1E115 cells were cultured in DMEM complete medium with 10% fetal bovine serum, 100 U mL^−1 of penicillin, and 100 μg mL^−1 of streptomycin and maintained at 37 °C in a humidified incubator supplemented with 5% CO2. N1E-115 cells were seeded at a density of 1 × 10^4 cells per mL on poly-L-lysine-coated 96-well plates and grown with DMSO or different tested compounds (10 μM) in DMSO solution for four days. Four days after incubation, morphometric analysis was performed on digitized images of live cells taken under phase contrast illumination with an inverted microscope linked to a camera. Images of five fields per well were taken with an average of 100 cells per field. Cells that had at least one neurite with a length that was twice as long as the body diameter were expressed as a percentage of the total cells in the field. The counting was performed in a blinded manner. All experiments were performed at least five times.
# [4] = molecular target: DAT: dopamine transporter (Homo sapiens, UniProt Q01959); experiment: Radioligand binding at DAT ([3H] WIN35428)
# Method: (§5) In order to exclude the potential interference of other receptor pathways to the observed neuritogenesis efficacy, we assessed the binding affinities of compounds 7, 18, 22, 24, 25, 28 and 29 at the biogenic amine transporters (NET, DAT, and SERT).
# as §2, §4
# [5] = molecular target: NET: norepinephrine transporter (Homo sapiens, UniProt P23975); experiment: Radioligand binding at NET ([3H] nisoxetine)
# Method: as §5, §2, §4
# σ2 receptor [6] = molecular target: σ2 receptor; design: method as in PMID 21278085, PMID 15170821, PMID 18647636, PMID 22935988, PMID 21967807; conditions: representative σ1 receptor ligands, Fig. 1; cited from earlier work
# T1 sequence (Q60492 whole entry): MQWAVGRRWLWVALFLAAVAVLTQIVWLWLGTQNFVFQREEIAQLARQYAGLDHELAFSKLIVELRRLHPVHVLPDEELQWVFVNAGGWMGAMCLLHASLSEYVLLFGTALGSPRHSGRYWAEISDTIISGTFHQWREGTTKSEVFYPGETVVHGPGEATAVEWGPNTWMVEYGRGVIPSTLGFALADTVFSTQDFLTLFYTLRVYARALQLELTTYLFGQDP
# Chain of NET: norepinephrine transporter (P23975 whole entry): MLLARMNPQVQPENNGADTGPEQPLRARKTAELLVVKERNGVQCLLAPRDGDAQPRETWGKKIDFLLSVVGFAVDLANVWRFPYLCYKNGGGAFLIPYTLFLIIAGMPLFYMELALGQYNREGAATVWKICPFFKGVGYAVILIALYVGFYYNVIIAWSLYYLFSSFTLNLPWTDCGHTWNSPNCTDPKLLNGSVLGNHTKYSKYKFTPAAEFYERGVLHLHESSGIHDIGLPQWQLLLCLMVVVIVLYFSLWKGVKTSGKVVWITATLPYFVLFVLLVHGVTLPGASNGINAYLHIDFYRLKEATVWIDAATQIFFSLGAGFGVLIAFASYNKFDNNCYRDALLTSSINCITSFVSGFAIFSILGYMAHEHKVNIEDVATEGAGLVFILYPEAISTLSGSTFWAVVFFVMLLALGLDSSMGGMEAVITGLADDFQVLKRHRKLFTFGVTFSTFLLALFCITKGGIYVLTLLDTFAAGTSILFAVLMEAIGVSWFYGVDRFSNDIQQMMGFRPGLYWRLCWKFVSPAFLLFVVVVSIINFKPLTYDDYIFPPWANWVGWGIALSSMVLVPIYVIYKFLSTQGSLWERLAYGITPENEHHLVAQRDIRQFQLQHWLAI
# Chain of DAT: dopamine transporter (Q01959 whole entry): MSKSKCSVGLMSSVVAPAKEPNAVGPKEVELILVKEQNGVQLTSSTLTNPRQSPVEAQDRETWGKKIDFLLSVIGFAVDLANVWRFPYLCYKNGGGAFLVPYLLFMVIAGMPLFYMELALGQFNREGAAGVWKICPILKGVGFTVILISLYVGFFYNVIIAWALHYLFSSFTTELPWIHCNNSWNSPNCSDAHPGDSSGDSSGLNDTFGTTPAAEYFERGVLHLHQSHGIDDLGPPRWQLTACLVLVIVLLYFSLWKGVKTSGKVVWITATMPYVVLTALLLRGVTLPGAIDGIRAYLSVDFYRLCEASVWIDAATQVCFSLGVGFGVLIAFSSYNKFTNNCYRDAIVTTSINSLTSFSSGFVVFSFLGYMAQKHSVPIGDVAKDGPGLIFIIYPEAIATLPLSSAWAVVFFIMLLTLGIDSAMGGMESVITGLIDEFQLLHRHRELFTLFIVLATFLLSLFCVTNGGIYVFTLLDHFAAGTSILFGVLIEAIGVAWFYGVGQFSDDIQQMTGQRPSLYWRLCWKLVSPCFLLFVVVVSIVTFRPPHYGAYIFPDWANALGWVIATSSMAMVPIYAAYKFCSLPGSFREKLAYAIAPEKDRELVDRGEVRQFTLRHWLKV
Ki (σ1 receptor [2]) [µM],Selectivity (Ki σ2/Ki σ1) (σ1 receptor [2]),Ki (σ2 receptor [3]) [µM],Structure (SMILES),Ki (σ1 receptor [1]) [µM],Neurite outgrowth (neuritogenesis) effect (N1E-115 neuronal cells),Ki [4] [µM],Ki [5] [µM],Decrease of affinity for σ1 receptor relative to compound 7 (σ1 receptor [2]; compared with parent compound 7) [fold],Increase of binding affinity for σ2 receptor relative to compound 7 (σ2 receptor [3]),Ki (σ2 receptor [6]) [µM]
,,,C[C@H](CCN1CCCCC1)c1ccc(-c2ccccc2)cc1 [(R)-RC-33],0.0018,,,,,,
0.0019,48,0.0915 ± 0.0075,"CN(CCOc1cc(COc2cccc(F)c2)on1)C1CCC1.Cl [Compound 17, N-(2-((5-((3-Fluorophenoxy)methyl)isoxazol-3-yl)oxy)ethyl)-N-methylcyclobutanamine hydrochloride]",,,,,,,
0.0008 ± 0.0001,131,0.105 ± 0.021,"CN(CCOc1cc(COc2cccc(Br)c2)on1)C1CCC1.Cl [Compound 19, N-(2-((5-((3-Bromophenoxy)methyl)isoxazol-3-yl)oxy)ethyl)-N-methylcyclobutanamine hydrochloride]",,,,,,,
0.0055 ± 0.0013,16,0.0866 ± 0.0168,"CN(CCOc1cc(COc2ccc(Br)cc2)on1)C1CCC1.Cl [Compound 20, N-(2-((5-((4-Bromophenoxy)methyl)isoxazol-3-yl)oxy)ethyl)-N-methyl-cyclobutanamine hydrochloride]",,,,,,,
0.0017 ± 0.0003,90,0.153 ± 0.037,"CN(CCOc1cc(COc2ccc(F)c(F)c2)on1)C1CCC1.Cl [Compound 21, N-(2-((5-((3,4-Difluorophenoxy)methyl)isoxazol-3-yl)oxy)ethyl)-N-methylcyclobutanamine hydrochloride]",,,,,,,
0.0032 ± 0.0016,11,0.036 ± 0.0097,"CN(CCOc1cc(COc2ccc(Cl)c(Cl)c2)on1)C1CCC1.Cl [Compound 23, N-(2-((5-((3,4-Dichlorophenoxy)methyl)isoxazol-3-yl)oxy)ethyl)-N-methylcyclobutanamine hydrochloride]",,,,,,,
0.004 ± 0.0012,9.5,0.038 ± 0.002,"CN(CCOc1cc(COc2cccc(C(F)(F)F)c2)on1)C1CCC1.Cl [Compound 26, N-Methyl-N-(2-((5-((3-(trifluoromethyl)phenoxy)methyl)isoxazol-3-yl)oxy)ethyl)cyclobutanamine hydrochloride]",,better efficacy than other mono-substituted compounds,,,,,
0.0042 ± 0.0019,29.5,0.124 ± 0.068,"Cc1cccc(OCc2cc(OCCN(C)C3CCC3)no2)c1.Cl [Compound 27, N-Methyl-N-(2-((5-((m-tolyloxy)methyl)isoxazol-3-yl)oxy)ethyl)cyclobutanamine hydrochloride]",,,,,,3 fold,
0.016 ± 0.005,3.3,0.0535 ± 0.0005,"Cl.c1ccc(OCc2cc(OCCN(C3CCC3)C3CCC3)no2)cc1 [Compound 30, N-Cyclobutyl-N-(2-((5-(phenoxymethyl)isoxazol-3-yl)oxy)ethyl)cyclobutanamine hydrochloride]",,,,,,,
,,,CCCN(CCC)CCc1ccc(OC)c(OCCc2ccccc2)c1 [NE-100],0.00103,,,,,,0.212
,,,O=C(OCCN1CCOCC1)C1(c2ccccc2)CCCCC1 [PRE-084],,,,,,,> 10

Structure (SMILES),Ki (σ1 receptor [2]) [µM],Selectivity (Ki σ2/Ki σ1) (σ1 receptor [2]),Ki (σ2 receptor [3]) [µM],Ki (σ1 receptor [1]) [µM],Neurite outgrowth (neuritogenesis) effect (N1E-115 neuronal cells),Ki [4] [µM],Ki [5] [µM],Decrease of affinity for σ1 receptor relative to compound 7 (σ1 receptor [2]; compared with parent compound 7) [fold],Increase of binding affinity for σ2 receptor relative to compound 7 (σ2 receptor [3]),Ki (σ2 receptor [6]) [µM]
"CN(CCOc1cc(COc2ccc(F)cc2)on1)C1CCC1.Cl [Compound 18, N-(2-((5-((4-Fluorophenoxy)methyl)isoxazol-3-yl)oxy)ethyl)-N-methylcyclobutanamine hydrochloride]",0.0009 ± 0.0001,87,0.0785 ± 0.0195,,preferable neurite outgrowth effects compared to the parent compound 7 and positive control RC-33; also recorded: significant neuritogenesis effects,5.63,,,,
"CN(CCOc1cc(COc2cc(F)cc(F)c2)on1)C1CCC1.Cl [Compound 22, N-(2-((5-((3,5-Difluorophenoxy)methyl)isoxazol-3-yl)oxy)ethyl)-N-methylcyclobutanamine hydrochloride]",0.0024 ± 0.0012,24,0.057 ± 0.0201,,preferable neurite outgrowth effects compared to the parent compound 7 and positive control RC-33; also recorded: significant neuritogenesis effects,> 10,2.88,,,
"CN(CCOc1cc(COc2cc(Cl)cc(Cl)c2)on1)C1CCC1.Cl [Compound 24, N-(2-((5-((3,5-Dichlorophenoxy)methyl)isoxazol-3-yl)oxy)ethyl)-N-methylcyclobutanamine hydrochloride]",0.0078 ± 0.0032,3.0,0.0228 ± 0.0111,,preferable neurite outgrowth effects compared to the parent compound 7 and positive control RC-33; also recorded: significant neuritogenesis effects,1.81,1.61,4,more than 10 fold,
"CN(CCOc1cc(COc2ccc(F)c(Cl)c2)on1)C1CCC1.Cl [Compound 25, N-(2-((5-((3-Chloro-4-fluorophenoxy)methyl)isoxazol-3-yl)oxy)ethyl)-N-methylcyclobutanamine hydrochloride]",0.0013 ± 0.0004,25,0.032 ± 0.006,,preferable neurite outgrowth effects compared to the parent compound 7 and positive control RC-33; also recorded: significant neuritogenesis effects,> 10,1.78,,,
"Cl.c1ccc(OCc2cc(OCCNC3CCC3)no2)cc1 [Compound 28, N-(2-((5-(Phenoxymethyl)isoxazol-3-yl)oxy)ethyl)cyclobutanamine hydrochloride]",0.0002,990,0.198 ± 0.064,,preferable neurite outgrowth effects compared to the parent compound 7 and positive control RC-33; also recorded: significant neuritogenesis effects,,7.1,,,
"Cl.Clc1cccc(OCc2cc(OCCNC3CCC3)no2)c1 [Compound 29, N-(2-((5-((3-Chlorophenoxy)methyl)isoxazol-3-yl)oxy)ethyl)cyclobutanamine hydrochloride]",0.0004 ± 0.0001,161,0.0645 ± 0.0132,,preferable neurite outgrowth effects compared to the parent compound 7 and positive control RC-33; also recorded: significant neuritogenesis effects,1.52,0.6,,,
